Test results taken from article PMC8151276, “An Integrated Approach toward NanoBRET Tracers for Analysis of GPCR Ligand Engagement” (Molecules, 2021).

Experiments:
Type in all cases: binding
CCR8 = molecular target: T1, CCR8 (Homo sapiens, UniProt P51685); assay: NanoBRET screen HiBiT-CCR8 in HEK293; conditions: listed as amitriptyline-b-2-NB590
T1 construct: purchased Promega (in-house HiBiT-GPCR construct library, NanoBRET)
Method: (§1) Each tracer candidate was screened across the entire library of HiBiT-GPCR constructs using NanoBRET as the detection modality. As depicted in Figure 4A, the specificity of interactions was evaluated through decrease in BRET due to competitive displacement of a bound tracer by excess parental compound. Each tracer was analyzed for binding to each HiBiT-GPCR fusion in the absence and in the presence of competing parental compound. Briefly, HEK293 cells were transfected with HiBiT-GPCR constructs diluted into promoterless DNA to reduce expression and maximize translocation to the cell surface. Each tracer candidate was then screened at concentrations of 1 μM and 0.1 μM across cells expressing these fusions. Cells were treated for 1.5 h with tracer either alone or in the presence of 20 μM competing parental compound (i.e., control). BRET was measured upon addition of purified LgBiT and subsequent complementation with HiBiT genetically fused to a GPCR. The specificity of interactions was assessed through a decrease in BRET signal due to competitive displacement of the bound tracer. To further gauge the robustness of these interactions, the fold response over the control (i.e., BRETtracer/BRETcontrol) was calculated. We chose a 1.5-fold response, which translates to ≥7-fold signal over noise as the minimal threshold required to score an interaction as positive. […]. Below we highlight the screening results obtained for our exemplary fluorescent tracers based on Clozapine, Amitriptyline and AZD1283.
(§2) HiBiT-GPCR DNA constructs were diluted in 10 mM Tris pH 8 to a final concentration of 0.01 μg/μL, arrayed in 96-well plates and stored at −20 °C. For transfection, HEK293 cells were suspended in Opti-MEM (without phenol red) supplemented with 2% fetal bovine serum (Seradigm) and 100 units/mL penicillin–streptomycin (Gibco) at a final concentration of 220,000 cells/mL and dispensed into white 96-well plates at 90 μL/well. Subsequent transfections and screens were carried using an Agilent Bravo Automated Liquid Handling Platform. First, the 96-well HiBiT DNA arrays were diluted 25-fold in Opti-MEM (without serum or phenol red) to a final concentration of 0.0004 μg/μL and 20 μL of the diluted DNAs were transferred into new 96-well plates. Next, promoterless carrier DNA (1 μg/μL) was diluted 25-fold (0.04 μg/μL) and then dispensed into the diluted arrays at 20 μL/well. Following brief mixing, Viafect transfection reagent (Promega) diluted 16-fold into Opti-MEM was dispensed into the plates at 40 μL/well. After mixing by pipetting, plates were incubated for 10 min on the pipetting station deck. The DNA-transfection reagent complexes were then added to plates containing cells. To facilitate the screen, 10 μL of DNA-transfection reagent complexes were added in duplicates to the top 4 and bottom 4 rows, resulting in two identical 48-well arrays per plate. Plates with transfected cells were incubated for 18–20 h at 37 °C/5% CO2. A screen of each tracer across the entire library using two different concentrations requires duplicate plates of transfected cells. Depending on the number of tracers being screened, transfections can be scaled up using the same ratios. The next day, for each tracer, four 20× screening solutions in tracer dilution buffer (Promega) were prepared: two duplicates at final concentration of 20 μM and two duplicates at a final concentration of 2 μM. A competing unmodified compound was added to one of each duplicate at a final concentration of 400 μM. The four resulting solutions were diluted 4-fold in Opti-MEM without serum or phenol red to generate 5× solutions (5 µM and 0.5 µM tracer +/− 100 μM competing compound). To screen the library, a BioTek MultiFlo FX liquid dispenser was used to dispense 22.5 µL of tracer solution to the top 4 rows and 22.5 µL tracer + competing compound solution to the 4 bottom rows. Plates were briefly mixed on an orbital shaker and incubated for 1.5 h at room temperature. […]

FZD4 = molecular target: T2, FZD4 (Homo sapiens, UniProt Q9ULV1); assay: NanoBRET screen HiBiT-FZD4 in HEK293; conditions: listed as amitriptyline-b-2-NB590
T2 construct: purchased Promega (in-house HiBiT-GPCR construct library, NanoBRET)
T2 sequence (Q9ULV1 37-537): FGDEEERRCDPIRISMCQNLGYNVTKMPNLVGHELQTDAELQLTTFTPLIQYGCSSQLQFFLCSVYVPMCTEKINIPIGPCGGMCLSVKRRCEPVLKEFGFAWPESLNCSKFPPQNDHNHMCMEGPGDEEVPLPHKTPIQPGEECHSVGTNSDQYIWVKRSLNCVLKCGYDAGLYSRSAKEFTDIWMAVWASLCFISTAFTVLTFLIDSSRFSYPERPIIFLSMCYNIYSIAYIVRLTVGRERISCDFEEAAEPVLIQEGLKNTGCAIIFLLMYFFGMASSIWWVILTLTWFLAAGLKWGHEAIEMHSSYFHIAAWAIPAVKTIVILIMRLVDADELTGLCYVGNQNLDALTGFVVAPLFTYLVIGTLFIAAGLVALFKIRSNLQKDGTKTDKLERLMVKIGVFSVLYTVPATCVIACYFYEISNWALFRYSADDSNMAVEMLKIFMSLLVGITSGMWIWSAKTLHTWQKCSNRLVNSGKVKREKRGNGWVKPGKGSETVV
Method: as §1, §2

CCR6 = molecular target: T3, CCR6 (Homo sapiens, UniProt P51684); assay: NanoBRET screen HiBiT-CCR6 in HEK293; conditions: listed as amitriptyline-b-2-NB590
T3 construct: purchased Promega (in-house HiBiT-GPCR construct library, NanoBRET)
T3 sequence (P51684 1-374): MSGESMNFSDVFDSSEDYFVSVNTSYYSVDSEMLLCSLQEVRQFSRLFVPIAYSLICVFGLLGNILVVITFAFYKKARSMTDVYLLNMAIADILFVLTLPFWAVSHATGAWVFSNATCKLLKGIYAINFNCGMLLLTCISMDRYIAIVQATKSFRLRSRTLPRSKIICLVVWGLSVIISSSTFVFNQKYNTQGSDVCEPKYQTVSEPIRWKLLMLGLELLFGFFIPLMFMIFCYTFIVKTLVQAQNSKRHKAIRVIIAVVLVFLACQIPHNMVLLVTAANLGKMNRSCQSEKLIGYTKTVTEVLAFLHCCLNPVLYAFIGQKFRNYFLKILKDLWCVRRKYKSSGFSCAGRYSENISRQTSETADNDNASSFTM
Method: as §1, §2

MLNR = molecular target: T4, MLNR (Homo sapiens, UniProt O43193); assay: NanoBRET screen HiBiT-MLNR in HEK293; conditions: tracer at 0.1μM; listed as amitriptyline-b-2-NB590
T4 construct: purchased Promega (in-house HiBiT-GPCR construct library, NanoBRET)
T4 sequence (O43193 whole entry): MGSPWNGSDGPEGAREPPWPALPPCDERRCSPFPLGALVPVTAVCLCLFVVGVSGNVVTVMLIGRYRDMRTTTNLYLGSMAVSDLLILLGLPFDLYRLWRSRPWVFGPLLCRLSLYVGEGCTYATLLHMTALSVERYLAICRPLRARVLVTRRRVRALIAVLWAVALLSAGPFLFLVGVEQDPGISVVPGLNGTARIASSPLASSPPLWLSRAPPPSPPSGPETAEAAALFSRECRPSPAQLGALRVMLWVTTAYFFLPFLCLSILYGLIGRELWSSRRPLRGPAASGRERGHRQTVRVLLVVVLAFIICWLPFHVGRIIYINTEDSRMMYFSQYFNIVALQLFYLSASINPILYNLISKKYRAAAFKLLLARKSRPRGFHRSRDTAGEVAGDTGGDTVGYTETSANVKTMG
Method: as §1, §2

T1 sequence (P51685 whole entry): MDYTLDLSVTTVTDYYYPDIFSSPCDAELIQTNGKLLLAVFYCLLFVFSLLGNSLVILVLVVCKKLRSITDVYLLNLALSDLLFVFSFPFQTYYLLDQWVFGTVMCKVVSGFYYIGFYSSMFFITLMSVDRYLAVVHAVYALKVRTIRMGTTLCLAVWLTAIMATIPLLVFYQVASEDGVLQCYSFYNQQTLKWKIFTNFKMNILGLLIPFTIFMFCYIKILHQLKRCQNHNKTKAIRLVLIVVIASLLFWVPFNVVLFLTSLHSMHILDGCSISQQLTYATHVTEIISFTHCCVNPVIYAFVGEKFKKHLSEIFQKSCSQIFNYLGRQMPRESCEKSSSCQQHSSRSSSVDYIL

For `CN(C)CCC=C1c2ccccc2CCc2ccc(C(=O)NCCNC(=O)CCOCCOCCOCCOCCNC(=O)CCc3ccc4n3[B-](F)(F)[N+]3=C(c5ccc[nH]5)C=CC3=C4)cc21` [Amitriptyline-b-2-NB590], the “NanoBRET Fold Response” value (CCR8; tracer at 0.1μM) was 1.03, the “NanoBRET Fold Response” value (CCR8; tracer at 1μM) was 1.03 and the “NanoBRET Fold Response” value (FZD4; tracer at 0.1μM) was 1.12. The “NanoBRET Fold Response” value (FZD4; tracer at 1μM) was 1.19, the “NanoBRET Fold Response” value (CCR6; tracer at 0.1μM) was 1.01 and the “NanoBRET Fold Response” value (CCR6; tracer at 1μM) was 1.01. For the same compound, the “NanoBRET Fold Response” value (MLNR) was 1.19.
